Laboratory results as given in patent US11472781B2, “2-aminoaryl-5-aryloxazole analogs for the treatment of neurodegenerative diseases” (Southern Research Institute, priority 2018, dated 2022).
≈ marks a conversion by molar mass, not a printed value. Read-outs that look alike come from different tables or passages of the source.

Assays:
NF-κB = assay: High throughput assay for NF-κB reporter activity (luciferase) in stably transfected SH-SY5Y cells; assay type: cell-based, human; details: Homo sapiens; for maximal fold induction: 24 h, read-out: Emax; for EC50: 24 hr, read-out: EC50
Experimental: SH-SY5Y human neuroblastoma cell line was obtained from the American Tissue Culture collection (ATCC). A commercially available expression vector containing the NF-kB promoter enhancer region driving the firefly luciferase gene expression and a second plasmid containing the gene conferring resistance to blasticidin were used in a dual transfection approach to obtain a stable cell line. […] Luciferase activity was measured as a reporter of NF-kB activation using the Bright-Glo Luciferase assay kit (Cat. No. E2620, Promega, Madison, Wis.) according to the manufacturer's instructions. Cell viability was measured using the CellTiter-Glo Luminescent Cell Viability assay kit (Cat. No. G7572, Promega, Madison, Wis.) according to the manufacturer's instructions. Briefly, cells were equilibrated at room temperature for 30 min prior to the addition of Bright-Glo to the white opaque plates or CellTiter-Glo to the black clear bottom plates. A volume of assay buffer equal to the volume of cell media was added to each well and incubated for five min to allow complete cell lysis. All procedures were performed in the dark.

SOD2 [1] = assay: Quantitative RT-PCR for SOD2 mRNA in SH-SY5Y neuroblastoma cells; assay type: cell-based, human; details: 1 μM, 6 h
Experimental: Referring to FIG. 1A and FIG. 1B, SH-SY5Y neuroblastoma cells were treated with vehicle or compounds (1 μM) for 6 or 24 hours, and cells were collected for RNA isolation (Trizol method). Quantitative RT-PCR for Manganese superoxide dismutase (SOD2; FIG. 1A) or brain-derived neurotrophic factor (BDNF, exon 1; FIG. 1B) indicates short-term upregulation of SOD2 and BDNF and sustained upregulation of BDNF (n=3-4/group, one-way ANOVA followed by unpaired t-test; […]).
Referring to FIG. 6, treatment of SH-SY5Y neuroblastoma cells with compounds (1 μM, 6 h) induced SOD2 mRNA expression >2 fold, as detected by q-RT-PCR. N=4/group, mean+/−SEM, 2-way ANOVA, post-hoc t-test. *p<0.05).

SOD2 [2] = assay: Quantitative RT-PCR for SOD2 mRNA in NSC-34 neuroblastoma cells; assay type: cell-based, mouse; details: NSC-34, 1 μM, 24 h
SOD2 [3] = assay: SOD2 protein expression and SOD activity in primary rat cortical cultures; assay type: cell-based
Text: N=3-6/group, mean+/−SEM, *p<0.05, **p<0.01, 2-way ANOVA, post-hoc t-test.

In vivo PK (I.V./P.O.) = assay: In vivo PK (I.V./P.O.); design: species or system mice; details: for half-life: male, CD1, mouse, plasma
Experimental: Before the studies above were initiated, congenic SOD1 G93A mice were dosed with 50 mg/kg of compound no. 1 and compound no. 2 via I.P. injection to rule out any toxicity issues prior to initiating the efficacy study (FIG. 4A-C).
The experiments will involve the administration of compounds to 5-6 week old CD1 male mice. Mice are dosed by either a 1 mg/kg IV bolus or 5 mg/kg oral gavage. Blood samples are collected by cardiac puncture at 0, 0.25, 0.5, 1, 2, 4, 6, 8, 12, and 24 hrs. There will be three mice per time point. Plasma concentration over time will be determined by LC/MS from which the standard PK parameters of clearance, volume of distribution, t1/2 and % F can be derived using WinNoLin software (Pharsight Inc.). This will require a total of 60 mice per compound. Plasma will be analyzed by reverse phase chromatography with MS/MS detection operating in the positive ion mode using multiple reaction monitoring using an internal standard and Applied Biosystems Analyst 1.4 software. Peak time (when maximum plasma drug concentration occurs), peak drug level [approximate maximum concentrations of drug in plasma (Cmax)] and t1/2 for drug elimination will be estimated for each tested compound. Bioavailability (F) will be calculated from the ratio of AUCPO/AUCIV and expressed as a percentage. To determine levels in brain, six additional mice will be dosed with 1 mg/kg I.V. and sacrificed at 0.25 and 1 hr. Brain and spinal cord samples will be collected at these two time points, quick frozen in an ice box and kept at −75±15° C. All samples will be weighed and homogenized with phosphate buffered saline (PBS) by brain weight (g) to PBS volume (mL) ratio 1:3 before analysis. The actual concentration is the detected value multiplied by the dilution factor.

[4] = Plasma and brain levels after I.P. dosing of SOD1 G93A mice; assay type: in vivo; details: 50 mg/kg I.P., within 30 minutes
[5] = test system: SOD1 G93A transgenic mouse; assay: Efficacy in the SOD1 G93A transgenic mouse model of ALS; assay type: in vivo; details: 25 mg/kg I.P. daily from day 96
Experimental: Briefly, Congenic SOD1-G93A mice were doced with up to 50 mg/kg of both compounds (IP) to evaluate any toxicity issues prior to initiating the efficacy study. Also, mice administered 20 mg of each compound had high plasma and brain levels at 30 minutes. Next, individually genotyped SOD1-G93A mice (Prize4life-Jackson Labs) were treated with each compound (25 mg/kg, IP) at disease onset (day 96). The treatment extended survival, reduced weight loss and improved the neurologic symptoms. […] The average weight within the groups before the treatment was similar.
While compounds which increase SOD2 expression and activity have potential utility in a number of neurodegenerative diseases involving ROS overproduction, it was decided to test these two compounds in a mouse model of ALS for a variety of reasons, including the evidence for oxidative stress in ALS (described above), the ability of these compounds to induce SOD2 in a motor neuron-like mouse cell line (NSC-34; FIG. 3B), and the availability of a mouse model with dysfunction in SOD1 (human SOD1 G93A transgenic mouse; Jackson Laboratory). The pilot experiment involved treating six wildtype and six SOD1 G93A transgenic males on the C57BL/6 background with 25 mg/kg compound no. 1 and compound no. 2 I.P. daily, beginning around disease onset (day 96; FIG. 4A and FIG. 4B). Mouse survival and behavioral phenotype were observed based on guidelines from “Working with ALS mice: JAX handbook,” using a 4-point severity score (FIG. 4C).
Referring to FIG. 4A and FIG. 4B, SOD1 G93A mice received daily IP injections of saline (control) or compounds (25 mg/kg) starting on day 96.
Referring. To FIG. 4C, progression from neurological score 1 was delayed only by compound no. 2 (2 day delay, +30%), progression to higher (worse) scores was delayed by both compounds. *P<0.05; **P<0.01, 2-way ANOVA.

Solubility = assay type: physicochemical; details: buffer, pH 7.4, aqueous buffer, kinetic from dmso stock
Text: A standard panel of in vitro ADME assays will be utilized to assess drug-like properties of compounds and to inform subsequent in vivo PK studies. These assays include: (a) Permeability: MDCK (Madin Darby Canine Kidney) cells transfected with the MDR1 gene encoding for the multi-drug resistant transporter (Pgp) will be utilized to determine a compound's ability to permeate the membrane in apical to basolateral (A-B) and basolateral to apical (B-A) directions. The derived apparent permeability coefficient (Papp) provides an estimate of passive permeability; a ratio of Papp in the B-A/A-B direction gives an estimate of transporter efflux; (b) Solubility: Kinetic solubility is an important parameter for accurate determinations of the dose response. This is estimated using the shake flask method with a μSol Explorer (PION, Billerica, Mass.) at pH 7.4. Compounds are added as a DMSO solution to buffer. The average of two determinations at pH 7.4 will be reported. Solubility at pH 7.4 is relevant for in vitro assays; (c) Metabolic Stability: The potential for a high metabolic clearance compound is estimated using a liver microsome assay. […] The disappearance of the parent molecule is measured by liquid chromatography/mass spectroscopy (LC/MS) detection. […]

[6] = I.V./P.O., 1 and 5 mg/kg, respectively
[7] = I.V./P.O., 1 and 5 mg/kg, respectively, read-out: plasma half-life (t1/2)

With `Cc1cccnc1Nc1nc(-c2ccccn2)cs1` [Compound 2] the maximal fold induction (NF-κB) was 40, the EC50 (NF-κB) was 210 nM and the “SOD2 mRNA expression” value (SOD2 [1]; q-RT-PCR) was roughly 2 fold. The “SOD2 mRNA expression” value (SOD2 [1]; SH-SY5Y) was “induce SOD2”, the “SOD2 mRNA expression” value (SOD2 [2]) was “induce SOD2” and the SOD2 protein expression (SOD2 [3]) was “induce SOD2”. The SOD activity (SOD2 [3]) was “increase”, the oral bioavailability (In vivo PK (I.V./P.O.); [6]) was “lack of oral bioavailability” and the half-life (In vivo PK (I.V./P.O.); [7]) was less than 5 min. The “plasma and brain levels” value [4] was “substantial plasma and brain levels”, the “progression to higher (worse) neurological scores / score of 4” value [5] was “delayed” and the survival [5] was “significantly prolonged”.

`O=C(O)c1cccc(-c2cnc(Nc3ccccc3F)o2)c1` [Compound 40, 3-(2-((2-Fluorophenyl)amino)oxazol-5-yl)benzoic Acid] gave a solubility (Solubility) of 56 µM (≈ 16.7 µg/mL), a half-life (In vivo PK (I.V./P.O.); iv, 1 mg/kg, I.V., read-out: I.V. t1/2 (converted)) of 84 min and an orally bioavailable (In vivo PK (I.V./P.O.); oral) of 16%.

In the case of `O=C(/C=C\Nc1ccccc1Br)c1ccc2c(c1)OCO2` [Compound 1, (Z)-1-(Benzo[d][1,3]dioxol-5-yl)-3-((2-bromophenyl)amino)prop-2-en-1-one], the maximal fold induction (NF-κB) is reported as 26, the EC50 (NF-κB) is reported as 500 nM and the “SOD2 mRNA expression” value (SOD2 [1]; q-RT-PCR) is reported as roughly 2 fold. For the same molecule, the “SOD2 mRNA expression” value (SOD2 [1]; SH-SY5Y) was “induce SOD2”, the “SOD2 mRNA expression” value (SOD2 [2]) was “induce SOD2” and the SOD2 protein expression (SOD2 [3]) was “induce SOD2”. For the same molecule, the SOD activity (SOD2 [3]) was “increase”, the oral bioavailability (In vivo PK (I.V./P.O.); [6]) was “lack of oral bioavailability” and the half-life (In vivo PK (I.V./P.O.); [7]) was less than 5 min. The “plasma and brain levels” value [4] was “substantial plasma and brain levels”, the “progression to higher (worse) neurological scores / score of 4” value [5] was “delayed” and the survival [5] was “significantly prolonged”.
